This note sets out measurements from patent US7396905B1, “Calcipressins: endogenous inhibitors of calcineurin, uses and reagents related thereto” (priority 1999, dated 2008).

Data set [1] deals with BHK cells transfected with CnA and CnB. The data set can be described thus: Calcium ionophore-induced apoptosis of BHK cells transfected with CnA/CnB. The settings on record: ionomycin, low serum. In kind it is cell-based, baby hamster. The procedure: FIG. 7: Cells transfected with CnA/CnB (0.5 μg each) were serum deprived for four hours and stimulated with ionomycin (0.25 μM) for one hour in low serum media alone or containing CsA (800 nM), 6 MeAla-CsA (800 nM), and MeBm2t-CsA (800 nM), FK506 (100 nM).
Calcium signaling plays an important and yet mechanistically vague role in a wide range of cell death, including neuronal cell death in stroke and lymphocyte cell death during positive and negative selection. To test the possibility that calcineurin, a calcium-activated phosphatase, participates in cell death, we asked if cells overexpressing calcineurin would show an enhanced sensitivity to calcium ionophore-induced cell death (Shibasaki and McKeon, 1995). We co-transfected calcineurin A and B subunits into baby hamster kidney (BHK) cells and treated them with calcium ionophore approximately 16 hours later.

In another data set the test system is Csp1 transcripts. The data set can be described thus: Csp1 transcript induction (Northern blot) in Jurkat T cells. In kind it is cell-based. The following applies: human Jurkat T cells, through eight hours. The procedure: 16A. Calcium signaling induces Csp 1 expression in synergy with PKC pathways. Csp 1 Northern blot of Jurkat T cells were treated with either calcium ionophore (I), PMA (P) or both (I+P) for the indicated durations. GAPDH transcripts were used as sample loading control.
16B. Calcium-dependent Csp 1 induction requires calcineurin.

A short description of data set [2]: Solubility assay upon expression in E. coli. In kind it is physicochemical. From the text:
Calcineurin consists of two subunits (Klee et al., 1998), CnA (60 kDa) and CnB (18 kDa), neither of which is soluble when expressed individually in E. coli. The structure of calcineurin was studied by taking advantage of the high level of calcineurin in the central nervous system to directly isolate it from bovine brain (Griffith et al., 1995). […] It is likely that the insolublility of Csp expression in E. coli is due to the absence of binding proteins such as calcineurin, thereby leaving hydrophobic stretches of amino acids uncomplemented (FIG. 1). As with the calcineurin subunits, it is possible that Csp 1 and Csp2 interact with calcineurin in a manner that will form a properly folded, soluble complex. […] The E. coli host containing the calcineurin expression vector will be transformed with these Csp vectors and selected for kanamycin resistance.
Alternatively the given protein or complex may be obtained in sufficient quantities and quality and crystallization protocols may be attempted. […] The skilled artisan will appreciate that other protein expression systems, such as baculovirus, may also be used.

The subject of data set [3] is calcineurin-dependent nuclear import of NF-AT4. The data set can be described thus: Calcineurin-dependent NF-AT4 nuclear import assay in BHK cells. In kind it is cell-based, baby hamster. The following applies: for inhibition of NF-AT4 nuclear import stimulated by calcium ionophore: co-expressed with GFP-NF-AT4 in BHK cells; for inhibition of NF-AT nuclear import driven by constitutively active calcineurin (ΔCnA): co-expressed with NF-AT and constitutively active ΔCnA in BHK cells. The procedure: This assay monitors the subcellular location of GFP-tagged NF-AT4, a transcription factor that resides in the cytoplasm of unstimulated BHK cells. Following stimulation of BHK cells with ionomycin, a calcium ionophore, GFP-NF-AT4 translocates to the nucleus with a t1/2 of five minutes. This translocation event is accompanied by a dephosphorylation of NF-AT4 in a process dependent on calcineurin.
Baby hamster kidney cells were grown on sterile glass coverslips in DMEM media with 10% fetal calf serum and transfected using calcium phosphate methods (Heald et al., 1993). […] NF-AT4 expression was based on the vector pcDNA3-GFP-NF-AT4 (Shibasaki et al., 1996). Transfected cells were grown for 18 hours prior to drug treatments. Cells were fixed 30 minutes after ionomycin (0.5 uM) treatment or washout using 3% formaldehyde in PBS for 10 minutes at room temperature.

Data set [4] deals with T1, purified bovine brain calcineurin (Bos taurus, UniProt P48452+P63099).
T1 construct: 50 nM purified bovine brain calcineurin; from tissue; host or cells: bovine brain
The data set can be described thus: Phosphorylated RII-peptide calcineurin phosphatase assay. The class given is biochemical. The settings on record: PKA-phosphorylated RII peptide as substrate; GsT fusion proteins 0-20 nM, 15 minutes; read-out: 50 percent inhibition concentrations (IC50) for calcineurin. On the procedure: The RII peptide of the cAMP-regulatory subunit of PKA was produced as a fusion protein with GsT and labeled with ^32P-phosphate using protein kinase A followed by glutathione-Sepharose affinity purification (Milan et al., 1994). The radiolabeled RII GsT fusion protein was incubated with 1.5u of purified bovine brain calcineurin (ProMega) and 200 nM calmodulin (Sigma) in the presence of 0-20 nM GsT-Csp1 or GsT-Csp2 for 15 minutes. The reaction was stopped by the addition of an equal volume of 2xSDS sample buffer. After fractionation by SDS-polyacrylamide gel electrophoresis, free phosphate was measured by PhosphorImager analysis.

For data set [5], the system named is human calcineurin A subunit. The data set can be described thus: Yeast two-hybrid interaction with calcineurin. In kind it is binding. The text has this: Potential targets of calcineurin, which is involved in neuronal calcium signaling, were identified using two hybrid screens of a murine hippocampal cDNA library as the prey and using calcineurin as a bait.
Sequence of human calcineurin A subunit (P63098 2-170, further chain): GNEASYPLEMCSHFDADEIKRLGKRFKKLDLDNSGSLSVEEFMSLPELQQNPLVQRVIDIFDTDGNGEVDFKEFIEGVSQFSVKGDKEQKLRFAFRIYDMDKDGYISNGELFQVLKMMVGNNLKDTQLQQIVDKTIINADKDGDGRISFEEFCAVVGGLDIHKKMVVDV
The calcineurin bait vector was constructed by cloning the human calcineurin A subunit (ΔCnAD130N; Zhu and McKeon, 1999) into pBRIDGE (Clontech) to create a fusion protein with the Gal4 DNA binding domain. The calcineurin regulatory B subunit (CnB) was cloned into the same pBridge vector under a separate, constitutive promoter. To test for interactions between calcineurin and proteins expressed in the hippocampus, the yeast strain CG1945, in which HIS3 expression is controlled by the Gal1 upstream activating sequence (UAS), was transfected with both the pBRIDGE vector as well as vector DNA from the murine hippocampal cDNA library. Cells were selected for growth on SD media lacking leucine, tryptophan, methionine, and histidine (-LWMH) containing 25 mM 3-aminotriazole, an inhibitor of alternative histidine biosynthetic pathways (REF). […]

Data set [6] relates to calcineurin-dependent NF-AT dephosphorylation. The data set can be described thus: NF-AT4 dephosphorylation (western blot mobility) in BHK cells. In kind it is cell-based, baby hamster. The following applies: co-expressed with NF-AT4 in BHK cells; calcium ionophore treatment. On the procedure: 3B. […] The transfected cells were either left untreated or treated with 1 μM calcium inonphore for 30 min, and the mobility of NF-AT4 was assessed by western blotting.
Background: In western blotting, separated proteins are transferred to a membrane and probed.

In data set [7] the target is T1, purified bovine brain calcineurin. The data set can be described thus: Para-nitrophenyl phosphate (pNPP) hydrolysis assay. In kind it is biochemical. The settings on record: 60 mM pNPP, 50 nM calcineurin, 0-100 nM GsT fusion protein. On the procedure: To determine whether the calcipressins; inhibit calcineurin in a manner similar to the immunosuppressants, we assayed pNPP hydrolysis by calcineurin-calcipressin complexes.
Reactions were performed for 30 min at 30 degrees, and stopped by the addition of 950 uL of 1M NaOH. The reaction product was measured by absorbance at 405 nm in a Beckman Du 64 spectophotometer.

In the case of `C/C=C/CC(C)(C)[C@@H](O)C1C(=O)N[C@@H](CC)C(=O)N(C)CC(=O)N(C)[C@@H](CC(C)C)C(=O)N[C@@H](C(C)C)C(=O)N(C)[C@@H](CC(C)C)C(=O)N[C@@H](C)C(=O)N[C@H](C)C(=O)N(C)[C@@H](CC(C)C)C(=O)N(C)[C@@H](CC(C)C)C(=O)N(C)[C@@H](C(C)C)C(=O)N1C` (some centres unmarked) [MeBm2t-CsA], in data set [1], the “effect on calcineurin-induced apoptosis” value was “augment the apoptotic effect of calcineurin to a greater extent than CsA”.

For `CCCCCCCCCCCCCC(=O)O[C@@H]1[C@@H](C)[C@@]2(O)[C@@H](C=C(CO)C[C@]3(O)C(=O)C(C)=C[C@@H]23)[C@@H]2C(C)(C)[C@]12OC(C)=O` [PMA, phorbol 12-myristate 13-acetate], the “effect on Csp1 transcript level” value with Csp1 transcripts is given as “weak yet detectable stimulation of Csp1 transcription”.

With `C[C@H](CCC(=O)O)C[C@H](C)C[C@H](C)C(=O)/C=C(\O)[C@H](C)C[C@H](C)C/C=C/[C@@H](C)[C@@H](O)[C@@H](C)[C@@H](O)C[C@@H]1CC[C@@](C)([C@H]2CC[C@@](C)([C@@H](C)O)O2)O1` [ionomycin], the “effect on Csp1 transcript level” value in the data set with Csp1 transcripts is given as “not significantly elevated”.

“Csp1 101-197: Csp1 lacking the N-terminus; C-terminal half of Csp1 (amino acids 101-197)”: in data set [2] (truncated molecule expressed in E. coli), the “fraction of molecule soluble in E. coli” value was “approximately 70%”. The “inhibition of NF-AT4 nuclear import stimulated by calcium ionophore” value in data set [3] is listed as “sufficient to inhibit the nuclear import of NF-AT4”.

In the case of “Csp1: Calcipressin 1, murine homolog of DSCR1, endogenous inhibitor of calcineurin; amino acid sequence SEQ ID No: 4”, in data set [4], the IC50 was 2 nM.

Regarding “Csp2: Calcipressin 2, murine homolog of ZAKI-4, endogenous inhibitor of calcineurin; amino acid sequence SEQ ID No: 5”, the “binding to calcineurin in two-hybrid yeast strains” value in data set [5] is “specifically bind to the catalytic subunit of calcineurin (CnA)”. In data set [2] (full length molecule expressed in E. coli at 15, 22, or 30° C.), the “typical yield of total protein in the soluble fraction” value is 3%. In addition, in data set [6], the NF-AT4 phosphorylation state result is listed as “hyperphosphorylated despite calcium ionophore treatment”. Besides, in data set [4], the IC50 is 5 nM. The “inhibition of pNPP hydrolysis by calcineurin” value in data set [7] is recorded as “blocked the hydrolysis of pNPP by calcineurin”. In data set [3], the “inhibition of NF-AT4 nuclear import stimulated by calcium ionophore” value is “profound suppression” and the “inhibition of NF-AT nuclear import driven by constitutively active calcineurin (ΔCnA)” value is given as “strong inhibitors of ΔCnA-induced NF-AT nuclear import”.

“Csp3: Third calcipressin family member, cDNA cloned from activated murine T cells; amino acid sequence SEQ ID No: 24”: in data set [3], the “inhibition of NF-AT nuclear import driven by constitutively active calcineurin (ΔCnA)” value was “inhibits the calcineurin mediated translocation of NFAT”.
